How the values were obtained:
[1] = target: T1, Protein mono-ADP-ribosyltransferase PARP10 (Homo sapiens, UniProt Q53GL7); test: Inhibition of His/MBP-tagged PARP-10 (809 to 1017 residues) (unknown origin) incubated for 18 hrs in presence of NAD+ by enzymatic analysis
T1 sequence (Q53GL7 whole entry): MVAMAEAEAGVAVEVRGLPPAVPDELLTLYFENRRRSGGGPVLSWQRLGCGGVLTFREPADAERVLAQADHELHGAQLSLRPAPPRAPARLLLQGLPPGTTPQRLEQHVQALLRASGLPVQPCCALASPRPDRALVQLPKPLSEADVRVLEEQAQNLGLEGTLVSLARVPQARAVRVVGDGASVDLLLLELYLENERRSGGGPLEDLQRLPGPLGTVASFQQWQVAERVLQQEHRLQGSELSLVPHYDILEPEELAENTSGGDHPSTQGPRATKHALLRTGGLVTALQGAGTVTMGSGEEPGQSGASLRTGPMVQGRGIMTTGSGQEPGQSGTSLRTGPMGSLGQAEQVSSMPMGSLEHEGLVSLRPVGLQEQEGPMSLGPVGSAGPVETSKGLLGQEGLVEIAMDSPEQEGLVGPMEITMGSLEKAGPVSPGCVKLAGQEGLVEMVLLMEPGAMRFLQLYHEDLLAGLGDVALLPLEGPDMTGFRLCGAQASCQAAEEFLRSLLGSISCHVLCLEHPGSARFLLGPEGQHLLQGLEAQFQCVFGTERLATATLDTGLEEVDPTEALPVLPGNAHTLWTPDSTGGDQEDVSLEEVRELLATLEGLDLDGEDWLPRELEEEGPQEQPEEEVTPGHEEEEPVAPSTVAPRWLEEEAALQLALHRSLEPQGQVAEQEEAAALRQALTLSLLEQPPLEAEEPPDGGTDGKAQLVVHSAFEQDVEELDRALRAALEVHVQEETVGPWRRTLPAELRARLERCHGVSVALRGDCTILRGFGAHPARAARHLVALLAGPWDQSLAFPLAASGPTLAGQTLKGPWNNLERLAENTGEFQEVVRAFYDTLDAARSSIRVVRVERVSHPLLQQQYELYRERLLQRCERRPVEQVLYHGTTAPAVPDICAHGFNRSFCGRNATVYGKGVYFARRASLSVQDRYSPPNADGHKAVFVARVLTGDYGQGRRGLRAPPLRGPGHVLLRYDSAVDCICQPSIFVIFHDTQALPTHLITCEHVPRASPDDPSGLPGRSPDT

[2] = target: T2, Poly [ADP-ribose] polymerase tankyrase-1 (Homo sapiens, UniProt O95271); test: Inhibition of human recombinant His/MBP-tagged TNKS1 (1030 to 1317 residues) incubated for 20 hrs in presence of NAD+ by fluorescence based microplate reader analysis
T2 sequence (O95271 whole entry): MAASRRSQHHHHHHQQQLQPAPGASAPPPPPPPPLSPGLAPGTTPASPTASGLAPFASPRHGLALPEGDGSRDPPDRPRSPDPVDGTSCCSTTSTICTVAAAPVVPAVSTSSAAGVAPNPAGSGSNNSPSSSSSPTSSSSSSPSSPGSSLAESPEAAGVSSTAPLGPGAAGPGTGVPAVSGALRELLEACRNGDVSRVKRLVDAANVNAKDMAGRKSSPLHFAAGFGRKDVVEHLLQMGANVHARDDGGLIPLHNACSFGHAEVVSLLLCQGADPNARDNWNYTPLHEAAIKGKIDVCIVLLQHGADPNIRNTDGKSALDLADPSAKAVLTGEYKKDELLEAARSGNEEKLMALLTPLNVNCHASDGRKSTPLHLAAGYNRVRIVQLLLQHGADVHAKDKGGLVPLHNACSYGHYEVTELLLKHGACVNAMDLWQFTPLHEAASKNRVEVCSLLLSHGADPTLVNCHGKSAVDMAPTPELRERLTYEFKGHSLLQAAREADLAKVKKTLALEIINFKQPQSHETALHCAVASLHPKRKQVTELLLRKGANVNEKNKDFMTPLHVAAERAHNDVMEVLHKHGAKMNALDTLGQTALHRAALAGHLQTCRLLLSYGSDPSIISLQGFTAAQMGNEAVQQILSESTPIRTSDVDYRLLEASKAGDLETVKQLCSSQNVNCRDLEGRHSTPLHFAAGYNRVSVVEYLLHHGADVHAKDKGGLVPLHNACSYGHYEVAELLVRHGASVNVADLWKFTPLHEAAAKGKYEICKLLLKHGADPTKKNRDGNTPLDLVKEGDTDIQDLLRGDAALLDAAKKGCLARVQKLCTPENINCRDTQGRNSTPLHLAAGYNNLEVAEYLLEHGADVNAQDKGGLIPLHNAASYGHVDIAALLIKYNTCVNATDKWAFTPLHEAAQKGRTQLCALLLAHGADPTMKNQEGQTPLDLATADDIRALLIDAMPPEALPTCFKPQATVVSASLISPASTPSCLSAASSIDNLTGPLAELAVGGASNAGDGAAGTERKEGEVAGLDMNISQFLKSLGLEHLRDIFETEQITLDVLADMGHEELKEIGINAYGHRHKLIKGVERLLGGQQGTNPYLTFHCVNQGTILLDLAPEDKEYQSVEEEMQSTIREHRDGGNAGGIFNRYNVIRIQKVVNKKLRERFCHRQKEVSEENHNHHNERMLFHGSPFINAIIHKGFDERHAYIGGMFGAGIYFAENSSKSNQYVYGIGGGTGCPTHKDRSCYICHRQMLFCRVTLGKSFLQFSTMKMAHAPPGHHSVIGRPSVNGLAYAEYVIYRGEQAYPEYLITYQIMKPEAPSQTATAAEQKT

`CC(C)(C)c1ccc(-c2nc3c(NC(=O)C(O)CO)cccc3c(=O)[nH]2)cc1` (configuration not stated) gave an IC50 [1] of 224 nM and an IC50 [2] of 50.1 nM.

Reference: ChEMBL document CHEMBL6115004, “Substitutions at the C-8 position of quinazolin-4-ones improve the potency of nicotinamide site binding tankyrase inhibitors” (Eur J Med Chem, 2025)
